# Assay results taken from patent US10351914B2, “Biomarkers for Pin1-associated disorders” (Beth Israel Deaconess Medical Center, Inc., priority 2014, dated 2019).
# Columns and labels:
# Pin1 acetylation = Pin1 acetylation in cells (Co-IP with anti-Flag antibody, immunoblotting with anti-acetyl lysine antibody); type: cell-based
# Source text: FIG. 1 depicts HTS results for glucose starvation induced Pin1 deacetylation in cells 100. Different stress tests, such as heat shock, ultraviolet radiation, and glucose starvation (Glu^−), may produce an extracellular stimulus that could transform one or more cellular responses related to cell growth, differentiation, activation of transcript factors, glucose metabolism, control of proteins synthesis, and regulation of cell cycle. Among these stresses testes, glucose starvation (Glu^−), may reduce Pin1 acetylation without affecting its protein expression (FIG. 1 A). […] Protein acetylation may be catalytically modulated by a particular pair of histone acetyl transferase (HAT) and histone deacetylase (HDAC) (Yang and Seto, 2007). To identify the HAT and HDAC that modulates Pin1 acetylation, Flag-tagged Pin1 was expressed with several HATs including p300, CBP or GCN5 in cells, followed by co-immunoprecipitation (Co-IP) with anti-Flag antibody and immunoblotting with anti-acetyl lysine antibody. […] Moreover, Pin1 Co-IPed with p300, supporting that p300 is a HAT for Pin1. For the corresponding HDAC, various HDAC inhibitors targeting different HDAC categories were used, including Trichostatin A (TSA) and MS-275 for class I and II HDACs as well as Nicotinamide (NAM) and Splitomicin (Splito) for class III HDACs.
# [1] = system: Pin1 and SIRT1 interaction; assay: Pin1 and SIRT1 interaction by Co-IP and co-immunostaining; type: cell-based; settings: Co-IP (FIG. 1 K) and co-immunostaining (FIG. 1 L)
# Source text: Out of the seven Sirtuin family members, SIRT1, 2, 6, and 7 associated with Pin1 as shown by Co-IP and GST pull-down (FIG. 1 F). However, only SIRT1 reduced Pin1 acetylation (FIG. 1 G). Furthermore, overexpression of wild-type (WT), but not its catalytic dead (H363Y) mutant, induced Pin1 deacetylation in cells (FIG. 1 H). […] In addition, since other studies have shown that glucose starvation activates SIRT1 activity, an investigation was made to know whether glucose starvation-induced Pin1 deacetylation is mediated by SIRT1.
# [2] = HDAC inhibitors in cells, FIG. 1 E
smiles,measurement,setting,value
"O=C1CCc2c(ccc3ccccc23)O1 [Splito, Splitomicin]",effect on Pin1 acetylation,Pin1 acetylation; [2],increased Pin1 acetylation
"O=CC[C@@H](O)[C@H](O)[C@H](O)CO [2-DG, 2-deoxyglucose]",effect on Pin1 acetylation,"Pin1 acetylation; mimicking glucose starvation, FIG. 1 B",reduction in Pin1 acetylation in a time- or dose-dependent manner
same,Pin1 binding with SIRT1,[1],increased binding with SIRT1
CCCCCCCCCCCCCCCc1cccc(O)c1C(=O)O [Anacardic acid],effect on p300-increased Pin1 acetylation (Acetyl-Pin1),"Pin1 acetylation; cells overexpressing p300 with Flag-Pin1, FIG. 1 D",reversed
"NC(=O)c1cccnc1 [NAM, Nicotinamide]",effect on Pin1 acetylation,Pin1 acetylation; [2],increased Pin1 acetylation
